What all share (experiment): NCI anticancer screen, dose series, 48 h
In assay [1] the test system is OVCAR-3.
The subject of assay [2] is SW-620.
Assay [3] deals with UO-31.
Assay [4] relates to UACC-62.
The test system of assay [5] is MDA-N.
Assay [6] has as its system SR.
Assay [7] has as its system M14.
For assay [8], the system named is SK-OV-3.
Assay [9] concerns BT-549.
In assay [10] the test system is OVCAR-4.
Assay [11] has as its system MDA-MB-435.
In assay [12] the test system is OVCAR-8.
Assay [13] concerns TK-10.
In assay [14] the test system is HL-60.
The subject of assay [15] is NCI/ADR-RES.
The subject of assay [16] is UACC-257.
The test system of assay [17] is HCT-15.
For assay [18], the system named is LOX IMVI.
For assay [19], the system named is DU-145.

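Briefly, cells in 96-well plates were exposed to five compound concentrations for 48 h, and endpoints were estimated by linear interpolation. GI50 = concentration required for 50% inhibition of growth.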 Active and inactive are the calls of the source. Cut-off read from the data, not from the text of the source: active = GI50 up to about 1.1 µM and inactive = higher.

Consider `CC1CNC(c2cccc(-c3nc(-c4cccc(C5=NC(C)CN5)c4)nc(N(C)C)n3)c2)=N1` (centres undefined), for which the GI50 is 1.53 µM (inactive) in assay [1]; 0.721 µM (active) in [2]; 3.77 µM (inactive) in assay [3]; 1.82 µM (inactive) in [4]; 1.52 µM (inactive) in [5]; 0.45 µM (active) in assay [6]. Besides, the GI50 in assay [7] was 3.5 µM (inactive); in assay [8], 1.58 µM (inactive); in [9], 3.19 µM (inactive); in assay [10], 0.771 µM (active); in assay [11], 1.19 µM (inactive); in assay [12], 2.15 µM (inactive). Moreover, the GI50 in assay [13] is 2.78 µM (inactive); in assay [14] it was 2.02 µM (inactive); in assay [15] it was 16.5 µM (inactive); in assay [16], 3.16 µM (inactive); in assay [17], 8.34 µM; in assay [18] it was 1.12 µM (inactive). In assay [19], the GI50 is 2.09 µM (inactive).

Consider `O=C(/C=C/c1ccccc1)NNC(=O)c1c(Cl)c(Cl)c(Cl)c(Cl)c1-c1nc2ccccc2[nH]1`, for which the GI50 in [1] was 28.4 µM (inactive); in assay [2], 33.3 µM (inactive); in assay [3], 19.5 µM (inactive); in assay [4] it was 15.7 µM (inactive); in assay [5], 11.3 µM (inactive); in assay [6], 12.9 µM (inactive). For the same compound, the GI50 in assay [7] was 25.8 µM (inactive); in assay [8], 0.0453 µM (active); in assay [9] it was 28.2 µM (inactive); in assay [10] it was 49.4 µM (inactive); in assay [11], 15.7 µM (inactive); in assay [12], 32 µM (inactive). The GI50 in [14] was 20.3 µM (inactive); in assay [15] it was 23.2 µM (inactive); in [16] it was 27.7 µM (inactive); in [17] it was 24 µM; in assay [18] it was 27.1 µM (inactive); in assay [19], 28.6 µM (inactive).

Regarding `Oc1nc(-c2ccc3ccccc3c2)nc2ccccc12`, the GI50 was 35.4 µM (inactive) in assay [1]; > 100 µM (inactive) in [2]; 23.4 µM (inactive) in [3]; > 100 µM (inactive) in assay [4]; 49.2 µM (inactive) in assay [5]; 20.4 µM (inactive) in [6]. Besides, the GI50 in assay [7] was 33.5 µM (inactive); in assay [8] it was 30.3 µM (inactive); in [9] it was > 100 µM (inactive); in assay [10], 3.81 µM (inactive); in assay [11], 61.9 µM (inactive); in [12], 12.7 µM (inactive). Moreover, the GI50 in assay [13] was 0.771 µM (active); in [14], > 100 µM (inactive); in [15], 20 µM (inactive); in assay [16], 74.6 µM (inactive); in assay [17], above 100 µM; in [18], > 100 µM (inactive). The GI50 in [19] is > 100 µM (inactive).

For the compound `O=C(Nc1ccc(S(=O)(=O)Nc2ncccn2)cc1)c1c2ccccc2nc2ccccc12`, the GI50 in assay [1] is > 100 µM (inactive); in assay [2], > 100 µM (inactive); in assay [3], > 100 µM (inactive); in assay [4] it was > 100 µM (inactive); in assay [5], > 100 µM (inactive); in assay [6], 55.7 µM (inactive). For the same compound, the GI50 in [7], in assay [8], in [9], in assay [10], in assay [11] and in [12] was > 100 µM (inactive) each time. Further, the GI50 is > 100 µM (inactive) in assay [13]; < 0.01 µM (active) in assay [14]; > 100 µM (inactive) in assay [15]; > 100 µM (inactive) in assay [16]; above 100 µM in [17]; > 100 µM (inactive) in assay [18]. Also, in assay [19], the GI50 is > 100 µM (inactive).

As for `O=C(CCOS(=O)(=O)CF)N1CCN(C(=O)CCOS(=O)(=O)CF)CC1`, the GI50 was > 100 µM (inactive) in [1]; > 100 µM (inactive) in assay [2]; 66.7 µM (inactive) in [3]; 16.4 µM (inactive) in [4]; > 100 µM (inactive) in [5]; 9.08 µM (inactive) in assay [6]. The GI50 in [7] was 58.6 µM (inactive); in assay [8] it was > 27.2 µM (inactive); in assay [9], > 100 µM (inactive); in assay [10] it was > 100 µM (inactive); in [11] it was > 100 µM (inactive); in [12] it was 60.1 µM (inactive). Also, the GI50 in assay [13] is > 100 µM (inactive); in assay [14], 5.06 µM (inactive); in [15], > 100 µM (inactive); in assay [16], > 100 µM (inactive); in assay [17], above 100 µM; in assay [18] it was 16.9 µM (inactive). For the same compound, the GI50 in [19] was 35.9 µM (inactive).

For `Nc1nc(Cl)cc(NCC2(CCO)CCC2)n1`, the GI50 in assay [1] is > 100 µM (inactive); in [2] it was > 100 µM (inactive); in assay [3] it was > 100 µM (inactive); in assay [4], > 10 µM (inactive); in assay [5], > 100 µM (inactive); in [6] it was > 100 µM (inactive). The GI50 in assay [8] is > 100 µM (inactive); in assay [9], 32.7 µM (inactive); in assay [10], > 100 µM (inactive); in assay [11], > 100 µM (inactive); in assay [12] it was > 100 µM (inactive); in [13], > 100 µM (inactive). The GI50 in assay [14] is > 100 µM (inactive); in [15], > 100 µM (inactive); in assay [16] it was > 100 µM (inactive); in assay [17], above 100 µM; in assay [18], > 100 µM (inactive); in assay [19], > 100 µM (inactive).

`Nc1c2c(nc3cc(F)c(F)cc13)CCC2`: the GI50 in [1] was > 100 µM (inactive); in assay [2] it was 29.2 µM (inactive); in assay [3] it was 4.05 µM (inactive); in [4], 82.4 µM (inactive); in assay [5] it was 49 µM (inactive); in [6], 24.2 µM (inactive). In addition, the GI50 in assay [7] was 61.5 µM (inactive); in [8] it was 62.1 µM (inactive); in assay [9], > 100 µM (inactive); in [10] it was 58.2 µM (inactive); in [11], 54 µM (inactive); in [12], 44.5 µM (inactive). Moreover, the GI50 was 26.4 µM (inactive) in assay [13]; 2.82 µM (inactive) in assay [14]; 60.1 µM (inactive) in [15]; 44.4 µM (inactive) in assay [16]; 45.4 µM in assay [17]; 36.6 µM (inactive) in assay [18]. In addition, the GI50 in assay [19] was 52.6 µM (inactive).

For `CC(C)OC(=O)OCSc1ccccc1/N=C/c1cccc([N+](=O)[O-])c1`, the GI50 in assay [1], in assay [2], in [3], in [4], in assay [5] and in assay [6] was > 10 µM (inactive) in each case. Also, the GI50 in assay [7], in assay [8], in assay [9], in [10], in assay [11] and in [12] was > 10 µM (inactive) in each case. For the same compound, the GI50 in assay [13] is > 10 µM (inactive); in assay [14], > 10 µM (inactive); in assay [15], > 10 µM (inactive); in assay [16], > 10 µM (inactive); in [17], above 10 µM; in assay [18] it was > 10 µM (inactive). The GI50 in assay [19] was > 10 µM (inactive).

On to `COc1ccc(CCc2ccc3c(c2)OCO3)cc1`, for which the GI50 in [1] was 31.6 µM (inactive); in [2] it was 32.8 µM (inactive); in [4] it was > 100 µM (inactive); in assay [5] it was 28.9 µM (inactive); in assay [6] it was 17.5 µM (inactive); in assay [7] it was 49.8 µM (inactive). Further, the GI50 in [8] is > 100 µM (inactive); in assay [9], 62.5 µM (inactive); in assay [10] it was 68.7 µM (inactive); in assay [11] it was 19.6 µM (inactive); in assay [12], > 100 µM (inactive); in assay [13], > 100 µM (inactive). In addition, the GI50 in assay [14] was 21.4 µM (inactive); in [15], 77.4 µM (inactive); in assay [16], 77.1 µM (inactive); in [17] it was 35.2 µM; in assay [18], 73.6 µM (inactive); in assay [19], 43 µM (inactive).

On to `Clc1ccc(/C=N/C23CC4CC(CC(C4)C2)C3)c(Cl)c1`, for which the GI50 in assay [1] is > 10 µM (inactive); in assay [2], > 10 µM (inactive); in [4], > 10 µM (inactive); in assay [5] it was > 10 µM (inactive); in assay [6], 3.5 µM (inactive); in assay [7] it was > 10 µM (inactive). In addition, the GI50 in [8], in [9], in assay [10], in [11], in [12] and in [13] was > 10 µM (inactive) in each case. Moreover, the GI50 was > 10 µM (inactive) in [14]; > 10 µM (inactive) in assay [15]; > 10 µM (inactive) in [16]; above 10 µM in [17]; > 10 µM (inactive) in assay [18]; > 10 µM (inactive) in assay [19].

For the compound `C[C@]12CCC3c4ccc(O)cc4CC[C@H]3C1CC(=O)NC2=O` (some centres undefined), the GI50 in [1], in assay [2], in [3], in assay [5], in assay [6] and in assay [7] was > 10 µM (inactive) each time. Further, the GI50 in assay [8], in assay [9], in [10], in assay [11], in assay [12] and in [13] was > 10 µM (inactive) throughout. Also, the GI50 was > 10 µM (inactive) in assay [14]; > 10 µM (inactive) in [15]; > 10 µM (inactive) in [16]; above 10 µM in assay [17]; > 10 µM (inactive) in assay [18]; > 10 µM (inactive) in assay [19].

The record behind these values is ChEMBL document CHEMBL1201862, “PubChem BioAssay data set” (2004).
